Source: ChEMBL document CHEMBL4304775, “Identification and characterization of a novel chemotype for human TLR8 inhibitors” (Eur J Med Chem, 2019)
Calls of active or inactive are those of the source. No cut-off for these calls is given here.

Assays:
Format in all cases: cell-based
[1] = Cytotoxicity against human HEK-Blue cells transfected with hTLR8 at 25 to 50 uM after 24 hrs by MTT assay
[2] = target: T1, Toll-like receptor 8 (Homo sapiens) (UniProt Q9NR97); test: Activation of human TLR8 expressed in HEK-Blue cells assessed as increase in NF-kappaB activation at 5 to 25 uM incubated for 24 hrs by quanti-blue SEAP assay
T1 sequence (whole entry): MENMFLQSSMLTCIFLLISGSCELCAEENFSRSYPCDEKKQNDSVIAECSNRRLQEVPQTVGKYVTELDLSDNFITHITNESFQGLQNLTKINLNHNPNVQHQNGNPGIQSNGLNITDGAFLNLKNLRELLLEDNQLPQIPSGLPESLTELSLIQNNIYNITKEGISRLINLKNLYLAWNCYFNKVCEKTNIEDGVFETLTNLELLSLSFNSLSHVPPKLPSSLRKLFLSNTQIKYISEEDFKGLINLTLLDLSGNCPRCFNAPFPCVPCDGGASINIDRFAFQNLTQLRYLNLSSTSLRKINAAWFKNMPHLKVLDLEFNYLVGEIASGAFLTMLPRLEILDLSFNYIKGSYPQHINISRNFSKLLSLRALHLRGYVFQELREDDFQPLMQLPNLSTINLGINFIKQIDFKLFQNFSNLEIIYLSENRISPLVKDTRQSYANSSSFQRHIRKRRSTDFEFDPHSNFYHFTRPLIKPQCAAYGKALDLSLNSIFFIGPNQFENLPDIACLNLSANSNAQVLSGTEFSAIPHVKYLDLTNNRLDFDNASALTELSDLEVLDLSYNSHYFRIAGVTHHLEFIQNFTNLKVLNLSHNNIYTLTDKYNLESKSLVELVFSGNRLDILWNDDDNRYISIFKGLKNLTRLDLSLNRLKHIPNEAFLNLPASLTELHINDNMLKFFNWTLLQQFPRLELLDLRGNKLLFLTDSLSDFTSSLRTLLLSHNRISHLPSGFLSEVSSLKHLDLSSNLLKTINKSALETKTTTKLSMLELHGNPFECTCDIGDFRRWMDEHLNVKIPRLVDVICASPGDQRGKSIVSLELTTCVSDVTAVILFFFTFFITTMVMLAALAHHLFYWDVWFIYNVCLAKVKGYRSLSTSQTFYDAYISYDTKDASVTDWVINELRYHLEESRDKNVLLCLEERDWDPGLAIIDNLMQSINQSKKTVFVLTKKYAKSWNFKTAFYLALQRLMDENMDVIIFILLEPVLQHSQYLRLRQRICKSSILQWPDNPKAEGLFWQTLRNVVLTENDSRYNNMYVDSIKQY

[3] = target: T1, Toll-like receptor 8 (Homo sapiens); test: Antagonist activity at human TLR8 expressed in HEK-Blue cells assessed as reduction in CL075-induced NF-kappaB activation at 25 uM incubated for 1 hr followed by CL075-stimulation and measured after 24 hrs by quanti-blue SEAP assay relative to control
[4] = target: Toll-like receptor 2 (Homo sapiens) (UniProt O60603); test: Antagonist activity at TLR2 in human THP1 cells assessed as inhibition of Pam2CSK4/Pam3CSK4-induced IL-8 secretion preincubated for 1 hr followed by Pam2CSK4/Pam3CSK4 stimulation and measured after 24 hrs by ELISA; settings: concentration not given here
Sequence of Toll-like receptor 2 (Homo sapiens) (O60603 whole entry): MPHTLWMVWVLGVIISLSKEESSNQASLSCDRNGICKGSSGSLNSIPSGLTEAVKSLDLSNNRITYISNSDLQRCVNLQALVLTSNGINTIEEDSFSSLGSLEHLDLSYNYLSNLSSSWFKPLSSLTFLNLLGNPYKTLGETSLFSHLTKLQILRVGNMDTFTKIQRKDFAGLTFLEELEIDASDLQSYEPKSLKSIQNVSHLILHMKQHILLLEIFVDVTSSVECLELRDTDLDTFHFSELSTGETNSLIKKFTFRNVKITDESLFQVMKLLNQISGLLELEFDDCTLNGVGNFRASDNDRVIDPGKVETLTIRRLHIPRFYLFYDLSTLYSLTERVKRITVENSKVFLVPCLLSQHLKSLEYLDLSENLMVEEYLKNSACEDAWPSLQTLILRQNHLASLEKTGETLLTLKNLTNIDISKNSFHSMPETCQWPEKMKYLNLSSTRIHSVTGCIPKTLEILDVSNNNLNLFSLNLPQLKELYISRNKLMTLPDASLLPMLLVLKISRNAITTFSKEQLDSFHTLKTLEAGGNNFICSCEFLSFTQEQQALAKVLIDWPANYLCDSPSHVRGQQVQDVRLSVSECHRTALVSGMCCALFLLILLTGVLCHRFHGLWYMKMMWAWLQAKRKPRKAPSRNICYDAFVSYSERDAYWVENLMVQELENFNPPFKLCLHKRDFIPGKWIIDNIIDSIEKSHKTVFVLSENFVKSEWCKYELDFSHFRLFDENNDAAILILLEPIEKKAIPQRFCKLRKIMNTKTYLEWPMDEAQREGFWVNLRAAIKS

## CCCCC(=O)c1c(C)[nH]c2ccccc12
[1]
  Activity: Non-Toxic
[2]
  Activity: inactive

## COc1ccc(NC(=O)c2[nH]nc3ccccc23)cn1
[1]
  Activity: Non-Toxic
[2]
  Activity: inactive

## Oc1nc2ccccc2n1Cc1ccccc1
[1]
  Activity: Non-Toxic
[2]
  Activity: inactive

## CCOC(=O)c1ccc(NC(=O)C(CC)Sc2nc3ccccc3[nH]2)cc1 (stereo not given)
[3]
  inhibition: < 50%
[1]
  Activity: Non-Toxic
[2]
  Activity: inactive

## C=CCNc1nc(C)nc(N2NC(C)=CC2C)n1 (stereo not given)
[1]
  Activity: Non-Toxic
[2]
  Activity: inactive

## CCCCCCn1c(=O)[nH]c2ccccc21
[1]
  Activity: Non-Toxic
[2]
  Activity: inactive

## CC(C)OC(=O)CSc1nc2ccc[nH]c-2n1
[1]
  Activity: Non-Toxic
[2]
  Activity: inactive

## CCn1cc(-c2cc(C(F)(F)F)nc(NCc3ccco3)n2)cn1
[1]
  Activity: Non-Toxic
[2]
  Activity: inactive

## C=CCNc1nc(-c2ccco2)cc(C(F)(F)F)n1
[1]
  Activity: Non-Toxic
[2]
  Activity: inactive

## Cc1[nH]c2ccccc2c1C(=O)C(=O)NCc1ccncc1
[3]
  inhibition: < 50%
[4]
  inhibition: 40%
[1]
  Activity: Non-Toxic
[2]
  Activity: inactive

## CCCSc1nc2ccccc2[nH]1
[1]
  Activity: Non-Toxic
[2]
  Activity: inactive
